Measured values from US11464749B2, “Bismuth-thiol compositions and methods of use” (Microbion Corporation, priority 2018, dated 2022).
Values after ≈ are worked out from the molar mass of the structure shown. Like-named read-outs stand apart in the source and are kept apart here.

Tests used:
Candida glabrata = assay: Broth microdilution antifungal susceptibility (Example 13); assay type: cell-based; conditions: Nakaseomyces glabratus
Achromobacter spp. = assay: MIC against CF bacterial strains (Example 5)
Enterococcus spp. = assay: Broth microdilution MIC (Example 11); conditions: read-out: MIC values
C. tropicalis = assay: Broth microdilution MIC, yeast (Example 11); assay type: cell-based; conditions: Candida tropicalis, FLU^R
A. niger = assay: Broth microdilution antifungal susceptibility (Example 13); assay type: cell-based; conditions: Aspergillus niger, ATCC29508; read-out: MIC0 48 hr
Candida krusei = assay: as above; assay type: cell-based; conditions: Pichia kudriavzevii
Candida auris = assay: as above; assay type: cell-based; conditions: Candidozyma auris
A. terreus = assay: as above; assay type: cell-based; conditions: Aspergillus terreus, A. terreus MMX 8229
A. fumigatus = assay: as above; assay type: cell-based; conditions: for MIC: Aspergillus fumigatus
[1] = test system: MABSC / M. abscessus biofilms; assay: Activity against CF-isolate biofilms; assay type: cell-based; conditions: AMT0130-8 (MABSC CF-isolate)
Burkholderia spp. = conditions: initial MIC testing
B. cenocepacia = assay: Broth microdilution MIC (Example 10); conditions: initial MIC testing
Escherichia coli = conditions: E. coli MMX 102 (ATCC 25922); CLSI QC ranges shown in parenthesis; cited from earlier work

Structure (SMILES): CC(S)C(C)S.[Bi] (stereo not drawn) [BisBDT, bismuth-2,3-butanedithiol]
- MIC (Candida glabrata; ATCC90030, read-out: MIC0 (complete inhibition), isolate ATCC 90030 (Susceptible)): 1 µg/mL
- MIC (Candida glabrata; ATCC90030, read-out: MIC2 (50% inhibition), isolate ATCC 90030 (Susceptible)): 0.5 µg/mL
- MIC (Candida glabrata; read-out: MIC0 (complete inhibition), isolate ATCC MYA-2950 (Susceptible)): 1 µg/mL
- MIC (Candida glabrata; read-out: MIC0 (complete inhibition), isolate MMX 7087 (Susceptible)): 1 µg/mL
- MIC (Candida glabrata; read-out: MIC0 (complete inhibition), isolate MMX 7093 (FLU-R)): 2 µg/mL
- MIC (Candida glabrata; read-out: MIC0 (complete inhibition), isolate MMX 7101 (FLU-R)): 1 µg/mL
- MIC (Candida glabrata; read-out: MIC0 (complete inhibition), isolate MMX 7103 (CASP-R, MICA-R)): 1 µg/mL
- MIC (Candida glabrata; read-out: MIC0 (complete inhibition), isolate MMX 7111 (Susceptible)): 1 µg/mL
- MIC (Candida glabrata; read-out: MIC0 (complete inhibition), isolate MMX 7285 (CASP-R, MICA-R)): 0.5 µg/mL
- MIC (Candida glabrata; read-out: MIC0 (complete inhibition), isolate MMX 7307 (CASP-R, MICA-R, FLU-R)): 1 µg/mL
- MIC (Candida glabrata; read-out: MIC0 (complete inhibition), isolate MMX 7549 (Susceptible)): 1 µg/mL
- MIC (Candida glabrata; read-out: MIC2 (50% inhibition), isolate ATCC MYA-2950 (Susceptible)): 0.5 µg/mL
- MIC (Candida glabrata; read-out: MIC2 (50% inhibition), isolate MMX 7087 (Susceptible)): 0.5 µg/mL
- MIC (Candida glabrata; read-out: MIC2 (50% inhibition), isolate MMX 7093 (FLU-R)): 1 µg/mL
- MIC (Candida glabrata; read-out: MIC2 (50% inhibition), isolate MMX 7101 (FLU-R)): 0.5 µg/mL
- MIC (Candida glabrata; read-out: MIC2 (50% inhibition), isolate MMX 7103 (CASP-R, MICA-R)): 0.5 µg/mL
- MIC (Candida glabrata; read-out: MIC2 (50% inhibition), isolate MMX 7111 (Susceptible)): 0.5 µg/mL
- MIC (Candida glabrata; read-out: MIC2 (50% inhibition), isolate MMX 7285 (CASP-R, MICA-R)): 0.25 µg/mL
- MIC (Candida glabrata; read-out: MIC2 (50% inhibition), isolate MMX 7307 (CASP-R, MICA-R, FLU-R)): 0.5 µg/mL
- MIC (Candida glabrata; read-out: MIC2 (50% inhibition), isolate MMX 7549 (Susceptible)): 0.5 µg/mL
- MIC (Achromobacter spp.): 0.5 µg/mL
- MIC (Achromobacter spp.; Achromobacter): 1 µg/mL
- MIC (Enterococcus spp.): 0.25 to 1 µg/mL
- MIC (C. tropicalis; 24 h, C. tropicalis MMX 7247): 4 µg/mL
- MIC (C. tropicalis; 24 h, C. tropicalis MMX 7248): 4 µg/mL
- MIC (C. tropicalis; 24 h, C. tropicalis MMX 7360): 2 µg/mL
- MIC (C. tropicalis; 48 h, C. tropicalis MMX 7247): 4 µg/mL
- MIC (C. tropicalis; 48 h, C. tropicalis MMX 7248): 8 µg/mL
- MIC (C. tropicalis; 48 h, C. tropicalis MMX 7360): 2 µg/mL
- MIC (A. niger): 2 µg/mL
- MIC (Candida krusei; ATCC6258, read-out: MIC0 (complete inhibition)): 1 µg/mL
- MIC (Candida krusei; ATCC14243, read-out: MIC0 (complete inhibition)): 1 µg/mL
- MIC (Candida krusei; ATCC96685, read-out: MIC2 (50% inhibition)): 0.25 µg/mL
- MIC (Candida krusei; read-out: MIC2 (50% inhibition)): 1 µg/mL
- MIC (Candida krusei; read-out: MIC0 (complete inhibition)): 2 µg/mL
- MIC (Candida auris; read-out: MIC0 (complete inhibition), isolate MMX 9862 (Susceptible)): 1 µg/mL
- MIC (Candida auris; read-out: MIC0 (complete inhibition), isolate MMX 9863 (FLU-R, VORI-R)): 2 µg/mL
- MIC (Candida auris; read-out: MIC0 (complete inhibition), isolate MMX 9864 (FLU-R, VORI-R)): 1 µg/mL
- MIC (Candida auris; read-out: MIC0 (complete inhibition), isolate MMX 9865 (FLU-R, VORI-R)): 2 µg/mL
- MIC (Candida auris; read-out: MIC0 (complete inhibition), isolate MMX 9866 (FLU-R, VORI-R)): 2 µg/mL
- MIC (Candida auris; read-out: MIC0 (complete inhibition), isolate MMX 9867 (FLU-R, VORI-R)): 2 µg/mL
- MIC (Candida auris; read-out: MIC0 (complete inhibition), isolate MMX 9868 (FLU-R, VORI-R)): 4 µg/mL
- MIC (Candida auris; read-out: MIC0 (complete inhibition), isolate MMX 9869 (FLU-R, VORI-R)): 4 µg/mL
- MIC (Candida auris; read-out: MIC0 (complete inhibition), isolate MMX 9870 (FLU-R, VORI-R)): 2 µg/mL
- MIC (Candida auris; read-out: MIC0 (complete inhibition), isolate MMX 9871 (Susceptible)): 2 µg/mL
- MIC (Candida auris; read-out: MIC2 (50% inhibition), isolate MMX 9862 (Susceptible)): 0.5 µg/mL
- MIC (Candida auris; read-out: MIC2 (50% inhibition), isolate MMX 9863 (FLU-R, VORI-R)): 1 µg/mL
- MIC (Candida auris; read-out: MIC2 (50% inhibition), isolate MMX 9864 (FLU-R, VORI-R), result after 48 hr incubation (insufficient growth at 24 hr)): 1 µg/mL
- MIC (Candida auris; read-out: MIC2 (50% inhibition), isolate MMX 9865 (FLU-R, VORI-R)): 1 µg/mL
- MIC (Candida auris; read-out: MIC2 (50% inhibition), isolate MMX 9866 (FLU-R, VORI-R)): 1 µg/mL
- MIC (Candida auris; read-out: MIC2 (50% inhibition), isolate MMX 9867 (FLU-R, VORI-R)): 1 µg/mL
- MIC (Candida auris; read-out: MIC2 (50% inhibition), isolate MMX 9868 (FLU-R, VORI-R)): 1 µg/mL
- MIC (Candida auris; read-out: MIC2 (50% inhibition), isolate MMX 9869 (FLU-R, VORI-R)): 1 µg/mL
- MIC (Candida auris; read-out: MIC2 (50% inhibition), isolate MMX 9870 (FLU-R, VORI-R)): 1 µg/mL
- MIC (Candida auris; read-out: MIC2 (50% inhibition), isolate MMX 9871 (Susceptible)): 1 µg/mL
- MIC (A. terreus; 24 hr, read-out: MIC0 24 hr): 0.25 µg/mL
- MIC (A. terreus; 48 hr, read-out: MIC0 48 hr): 1 µg/mL
- MIC0 24 hr (A. fumigatus; A. fumigatus ATCC MYA-3626, 24 hr): 2 µg/mL
- MIC0 24 hr (A. fumigatus; A. fumigatus MMX 5934, 24 hr): 2 µg/mL
- MEC at 48 hr (MIC0 not observed) (A. fumigatus; A. fumigatus MMX 5934, 48 hr): 4 µg/mL
- MIC (A. fumigatus; ATCC204305, A. fumigatus ATCC 204305, 24 hr, read-out: MIC0 24 hr): 8 µg/mL
- MIC (A. fumigatus; ATCC204305, A. fumigatus ATCC 204305, 48 hr, read-out: MEC at 48 hr (MIC0 not observed)): 4 µg/mL
- MIC (A. fumigatus; A. fumigatus ATCC MYA-3626, 48 hr, read-out: MIC0 48 hr): 4 µg/mL
- MIC (A. fumigatus; A. fumigatus MMX 5939, 24 hr, read-out: MIC0 24 hr): 2 µg/mL
- MIC (A. fumigatus; A. fumigatus MMX 5939, 48 hr, read-out: MEC at 48 hr (MIC0 not observed)): 4 µg/mL
- MIC (A. fumigatus; read-out: MIC0 48 hr): 1 µg/mL
- reduction in biofilm cell viability [1]: only very modest reductions

Structure (SMILES): C[C@@H](O)[C@H]1C(=O)N2C(C(=O)O)=C(S[C@@H]3CN[C@H](C(=O)N(C)C)C3)[C@H](C)[C@H]12 [MEM]
- MIC (Burkholderia spp.; B. multivorans isolate 1580 (CIP-R)): 2 µg/mL (≈ 5.22 µM)
- MIC (Burkholderia spp.; B. multivorans isolate 1791): 4 µg/mL (≈ 10.4 µM)
- MIC (Burkholderia spp.; B. multivorans isolate 1795 (MEM-I, CIP-R)): 8 µg/mL (≈ 20.9 µM)
- MIC (Burkholderia spp.; B. multivorans isolate 5665 (CIP-I)): 2 µg/mL (≈ 5.22 µM)
- MIC (Burkholderia spp.; B. multivorans isolate 8952 (CIP-I)): 2 µg/mL (≈ 5.22 µM)
- MIC (B. cenocepacia; B. cenocepacia isolate 0548 (CIP-R)): 4 µg/mL (≈ 10.4 µM)
- MIC (B. cenocepacia; B. cenocepacia isolate 0813 (CPI-I)): 2 µg/mL (≈ 5.22 µM)
- MIC (B. cenocepacia; B. cenocepacia isolate 1631): 4 µg/mL (≈ 10.4 µM)
- MIC (B. cenocepacia; B. cenocepacia isolate 1783): 4 µg/mL (≈ 10.4 µM)
- MIC (B. cenocepacia; B. cenocepacia isolate 8555): 4 µg/mL (≈ 10.4 µM)

Structure (SMILES): C[C@@H](O)[C@H]1C(=O)N2C(C(=O)O)=C(S[C@@H]3CN[C@H](C(=O)N(C)C)C3)[C@H](C)[C@H]12 [Meropenem, reference compound]
- CLSI QC range of MIC (Escherichia coli): (0.008-0.06) μg/mL
